Assay results published in ChEMBL document CHEMBL3885861, “Open TG-GATES”.

Species: Rattus norvegicus
Test: Open TG-GATES - Regimen: Single
Type: toxicity, organism-based, Sprague-Dawley
Set-up: regimen Single, gender Male, age 6 weeks
Conditions: in vivo, po, route gavage; for APTT / Bas / Eos / Fbg / Hb / Ht / Lym / MCH / MCHC / MCV / Mono / Neu / PT / Plat / RBC / Ret / WBC: tissue Blood; for KIDNEY_L / KIDNEY_R / KIDNEY_TOTAL: tissue Kidney; for LIVER: tissue Liver; for A/G / ALP / ALT / AST / BUN / CRE / Ca / Cl / DBIL / GLC / IP / K / LDH / Na / PL / RALB / TBIL / TC / TG / TP / gamma-GTP: tissue Plasma
[1] = 300 mg/kg, 3 h, dose level Middle
[2] = 300 mg/kg, 6 h, dose level Middle
[3] = 300 mg/kg, 9 h, dose level Middle
[4] = 300 mg/kg, 24 h, dose level Middle
[5] = 1000 mg/kg, 3 h, dose level High
[6] = 1000 mg/kg, 6 h, dose level High
[7] = 1000 mg/kg, 9 h, dose level High
[8] = 1000 mg/kg, 24 h, dose level High

O=C(N[C@H](CO)[C@H](O)c1ccc([N+](=O)[O-])cc1)C(Cl)Cl [CHLORAMPHENICOL]
TERMINAL_BW [1]: 221.3 g
APTT [1]: 16.6 s
Bas [1]: 0%
Eos [1]: 1%
Fbg [1]: 268.4 mg/dL
Hb [1]: 13.2 g/dL
Ht [1]: 39%
Lym [1]: 78.2%
MCH [1]: 21.8 pg
MCHC [1]: 33.9%
MCV [1]: 64.1 fL
Mono [1]: 3.2%
Neu [1]: 17.4%
PT [1]: 14.5 s
Plat [1]: 114 x10_4/uL
RBC [1]: 608.8 x10_4/ul
Ret [1]: 8.3%
WBC [1]: 71.3 x10_2/uL
KIDNEY_L [1]: 0.9 g
KIDNEY_R [1]: 0.9 g
KIDNEY_TOTAL [1]: 1.9 g
LIVER [1]: 9.8 g
A/G [1]: 0.9
ALP [1]: 1546.4 IU/L
ALT [1]: 41 IU/L
AST [1]: 76.6 IU/L
BUN [1]: 11 mg/dL
CRE [1]: 0.2 mg/dL
Ca [1]: 11.5 mg/dL
Cl [1]: 105.8 meq/L
DBIL [1]: 0.018 mg/dL
GLC [1]: 181.8 mg/dL
IP [1]: 9.1 mg/dL
K [1]: 4.1 meq/L
LDH [1]: 66.2 IU/L
Na [1]: 139.8 meq/L
PL [1]: 144.2 mg/dL
RALB [1]: 2.5 g/dL
TBIL [1]: 0.064 mg/dL
TC [1]: 76.6 mg/dL
TG [1]: 66 mg/dL
TP [1]: 5.5 g/dL
gamma-GTP [1]: 1.2 IU/L
TERMINAL_BW [2]: 221.3 g
APTT [2]: 17.6 s
Bas [2]: 0%
Eos [2]: 0.8%
Fbg [2]: 284 mg/dL
Hb [2]: 13.4 g/dL
Ht [2]: 42.8%
Lym [2]: 79.8%
MCH [2]: 21.7 pg
MCHC [2]: 31.3%
MCV [2]: 69.4 fL
Mono [2]: 2.6%
Neu [2]: 16.8%
PT [2]: 15 s
Plat [2]: 107.3 x10_4/uL
RBC [2]: 618.2 x10_4/ul
Ret [2]: 8.2%
WBC [2]: 68.7 x10_2/uL
KIDNEY_L [2]: 0.9 g
KIDNEY_R [2]: 1 g
KIDNEY_TOTAL [2]: 1.9 g
LIVER [2]: 8.8 g
A/G [2]: 0.9
ALP [2]: 1672 IU/L
ALT [2]: 40.8 IU/L
AST [2]: 72.2 IU/L
BUN [2]: 9.4 mg/dL
CRE [2]: 0.2 mg/dL
Ca [2]: 11.4 mg/dL
Cl [2]: 106 meq/L
DBIL [2]: 0.014 mg/dL
GLC [2]: 184.4 mg/dL
IP [2]: 9.8 mg/dL
K [2]: 4.4 meq/L
LDH [2]: 79 IU/L
Na [2]: 141 meq/L
PL [2]: 138.2 mg/dL
RALB [2]: 2.5 g/dL
TBIL [2]: 0.07 mg/dL
TC [2]: 76.6 mg/dL
TG [2]: 60 mg/dL
TP [2]: 5.4 g/dL
gamma-GTP [2]: 1 IU/L
TERMINAL_BW [3]: 221.3 g
APTT [3]: 16.4 s
Bas [3]: 0%
Eos [3]: 0.8%
Fbg [3]: 273.4 mg/dL
Hb [3]: 13.2 g/dL
Ht [3]: 42.2%
Lym [3]: 81.6%
MCH [3]: 20.5 pg
MCHC [3]: 31.4%
MCV [3]: 65.4 fL
Mono [3]: 1.8%
Neu [3]: 15%
PT [3]: 15.2 s
Plat [3]: 109.8 x10_4/uL
RBC [3]: 646.2 x10_4/ul
Ret [3]: 7.4%
WBC [3]: 55.9 x10_2/uL
KIDNEY_L [3]: 0.9 g
KIDNEY_R [3]: 0.9 g
KIDNEY_TOTAL [3]: 1.8 g
LIVER [3]: 8.3 g
A/G [3]: 0.9
ALP [3]: 1711.2 IU/L
ALT [3]: 34.6 IU/L
AST [3]: 70.2 IU/L
BUN [3]: 10.2 mg/dL
CRE [3]: 0.2 mg/dL
Ca [3]: 11.1 mg/dL
Cl [3]: 105 meq/L
DBIL [3]: 0.014 mg/dL
GLC [3]: 180.4 mg/dL
IP [3]: 10.2 mg/dL
K [3]: 4.5 meq/L
LDH [3]: 59.4 IU/L
Na [3]: 139.8 meq/L
PL [3]: 122 mg/dL
RALB [3]: 2.5 g/dL
TBIL [3]: 0.068 mg/dL
TC [3]: 67.8 mg/dL
TG [3]: 36 mg/dL
TP [3]: 5.3 g/dL
gamma-GTP [3]: 1.2 IU/L
TERMINAL_BW [4]: 227.9 g
APTT [4]: 18.8 s
Bas [4]: 0%
Eos [4]: 0.8%
Fbg [4]: 258.8 mg/dL
Hb [4]: 13.7 g/dL
Ht [4]: 42.4%
Lym [4]: 84.4%
MCH [4]: 21.7 pg
MCHC [4]: 32.1%
MCV [4]: 67.6 fL
Mono [4]: 2.8%
Neu [4]: 11.6%
PT [4]: 14.8 s
Plat [4]: 118.7 x10_4/uL
RBC [4]: 628.2 x10_4/ul
Ret [4]: 7.8%
WBC [4]: 66 x10_2/uL
KIDNEY_L [4]: 1 g
KIDNEY_R [4]: 1 g
KIDNEY_TOTAL [4]: 2 g
LIVER [4]: 9.4 g
A/G [4]: 0.9
ALP [4]: 1891.8 IU/L
ALT [4]: 48.2 IU/L
AST [4]: 76.6 IU/L
BUN [4]: 14.8 mg/dL
CRE [4]: 0.2 mg/dL
Ca [4]: 11.5 mg/dL
Cl [4]: 105.4 meq/L
DBIL [4]: 0.02 mg/dL
GLC [4]: 190.4 mg/dL
IP [4]: 8.8 mg/dL
K [4]: 4.5 meq/L
LDH [4]: 65 IU/L
Na [4]: 141.6 meq/L
PL [4]: 157.6 mg/dL
RALB [4]: 2.5 g/dL
TBIL [4]: 0.062 mg/dL
TC [4]: 86 mg/dL
TG [4]: 81 mg/dL
TP [4]: 5.5 g/dL
gamma-GTP [4]: 1 IU/L
TERMINAL_BW [5]: 221.6 g
APTT [5]: 17.1 s
Bas [5]: 0%
Eos [5]: 1%
Fbg [5]: 263.6 mg/dL
Hb [5]: 13.5 g/dL
Ht [5]: 39.6%
Lym [5]: 73%
MCH [5]: 21.7 pg
MCHC [5]: 34.2%
MCV [5]: 63.7 fL
Mono [5]: 3.8%
Neu [5]: 21.8%
PT [5]: 14.9 s
Plat [5]: 112.6 x10_4/uL
RBC [5]: 622.4 x10_4/ul
Ret [5]: 7.8%
WBC [5]: 76.3 x10_2/uL
KIDNEY_L [5]: 1 g
KIDNEY_R [5]: 1 g
KIDNEY_TOTAL [5]: 2 g
LIVER [5]: 9.5 g
A/G [5]: 0.9
ALP [5]: 1586 IU/L
ALT [5]: 42 IU/L
AST [5]: 78.4 IU/L
BUN [5]: 8.4 mg/dL
CRE [5]: 0.2 mg/dL
Ca [5]: 10.9 mg/dL
Cl [5]: 106.6 meq/L
DBIL [5]: 0.012 mg/dL
GLC [5]: 182.4 mg/dL
IP [5]: 9 mg/dL
K [5]: 4.2 meq/L
LDH [5]: 56.4 IU/L
Na [5]: 140 meq/L
PL [5]: 137.2 mg/dL
RALB [5]: 2.6 g/dL
TBIL [5]: 0.064 mg/dL
TC [5]: 70.4 mg/dL
TG [5]: 63 mg/dL
TP [5]: 5.5 g/dL
gamma-GTP [5]: 1 IU/L
TERMINAL_BW [6]: 221.4 g
APTT [6]: 16.8 s
Bas [6]: 0%
Eos [6]: 1%
Fbg [6]: 278.4 mg/dL
Hb [6]: 13.9 g/dL
Ht [6]: 45.6%
Lym [6]: 73.8%
MCH [6]: 21.1 pg
MCHC [6]: 30.4%
MCV [6]: 69.3 fL
Mono [6]: 2%
Neu [6]: 23.2%
PT [6]: 15 s
Plat [6]: 113 x10_4/uL
RBC [6]: 657.2 x10_4/ul
Ret [6]: 7.7%
WBC [6]: 59.5 x10_2/uL
KIDNEY_L [6]: 0.9 g
KIDNEY_R [6]: 0.9 g
KIDNEY_TOTAL [6]: 1.8 g
LIVER [6]: 8.5 g
A/G [6]: 0.9
ALP [6]: 1369 IU/L
ALT [6]: 33.2 IU/L
AST [6]: 69 IU/L
BUN [6]: 7.8 mg/dL
CRE [6]: 0.2 mg/dL
Ca [6]: 11.1 mg/dL
Cl [6]: 107 meq/L
DBIL [6]: 0.01 mg/dL
GLC [6]: 186.2 mg/dL
IP [6]: 10.3 mg/dL
K [6]: 4.1 meq/L
LDH [6]: 57.6 IU/L
Na [6]: 141.4 meq/L
PL [6]: 128.2 mg/dL
RALB [6]: 2.6 g/dL
TBIL [6]: 0.072 mg/dL
TC [6]: 70 mg/dL
TG [6]: 26.2 mg/dL
TP [6]: 5.5 g/dL
gamma-GTP [6]: 1 IU/L
TERMINAL_BW [7]: 221.1 g
APTT [7]: 17 s
Bas [7]: 0%
Eos [7]: 0.8%
Fbg [7]: 281.4 mg/dL
Hb [7]: 13.8 g/dL
Ht [7]: 44%
Lym [7]: 80.2%
MCH [7]: 21.4 pg
MCHC [7]: 31.4%
MCV [7]: 68.2 fL
Mono [7]: 1.6%
Neu [7]: 17.8%
PT [7]: 15.6 s
Plat [7]: 107.2 x10_4/uL
RBC [7]: 644.8 x10_4/ul
Ret [7]: 7.5%
WBC [7]: 53.4 x10_2/uL
KIDNEY_L [7]: 0.9 g
KIDNEY_R [7]: 0.9 g
KIDNEY_TOTAL [7]: 1.8 g
LIVER [7]: 8.5 g
A/G [7]: 0.9
ALP [7]: 1491.8 IU/L
ALT [7]: 30 IU/L
AST [7]: 68 IU/L
BUN [7]: 8.2 mg/dL
CRE [7]: 0.2 mg/dL
Ca [7]: 10.9 mg/dL
Cl [7]: 105.4 meq/L
DBIL [7]: 0.018 mg/dL
GLC [7]: 176.6 mg/dL
IP [7]: 10.6 mg/dL
K [7]: 4.2 meq/L
LDH [7]: 69.6 IU/L
Na [7]: 140 meq/L
PL [7]: 125.8 mg/dL
RALB [7]: 2.5 g/dL
TBIL [7]: 0.074 mg/dL
TC [7]: 66.6 mg/dL
TG [7]: 44 mg/dL
TP [7]: 5.5 g/dL
gamma-GTP [7]: 1 IU/L
TERMINAL_BW [8]: 222.4 g
APTT [8]: 16.6 s
Bas [8]: 0%
Eos [8]: 0.8%
Fbg [8]: 255.8 mg/dL
Hb [8]: 14.2 g/dL
Ht [8]: 44.2%
Lym [8]: 83%
MCH [8]: 21.3 pg
MCHC [8]: 32.1%
MCV [8]: 66.4 fL
Mono [8]: 4%
Neu [8]: 11.6%
PT [8]: 15.7 s
Plat [8]: 121.3 x10_4/uL
RBC [8]: 665 x10_4/ul
Ret [8]: 6.3%
WBC [8]: 54.2 x10_2/uL
KIDNEY_L [8]: 0.9 g
KIDNEY_R [8]: 0.9 g
KIDNEY_TOTAL [8]: 1.9 g
LIVER [8]: 9.4 g
A/G [8]: 0.9
ALP [8]: 1571.8 IU/L
ALT [8]: 45.8 IU/L
AST [8]: 79.2 IU/L
BUN [8]: 14.4 mg/dL
CRE [8]: 0.2 mg/dL
Ca [8]: 11.6 mg/dL
Cl [8]: 106.8 meq/L
DBIL [8]: 0.016 mg/dL
GLC [8]: 184.8 mg/dL
IP [8]: 9.1 mg/dL
K [8]: 4.1 meq/L
LDH [8]: 64 IU/L
Na [8]: 142.2 meq/L
PL [8]: 122.4 mg/dL
RALB [8]: 2.6 g/dL
TBIL [8]: 0.068 mg/dL
TC [8]: 65.2 mg/dL
TG [8]: 50.8 mg/dL
TP [8]: 5.6 g/dL
gamma-GTP [8]: 1 IU/L
